Active and inactive are the calls of the source.
How the values were obtained:
[1] = Trypanosoma cruzi growth suppression in host cells – NIH3T3 host cells, beta-gal luminescence, confirmation (AID 2044); assay type: functional, cell-based;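 further: intracellular parasites grown in NIH/3T3 mouse fibroblasts as host cells; luminescent beta-galactosidase reporter signal from transgenic T. cruzi replicating inside host cells; inhibitors lower the luminescence signal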
[2] = NIH3T3 cell viability loss – ATP luminescence, mouse fibroblasts, counter-screen, dose response (AID 2010); assay type: functional, cell-based;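 further: cells exposed to compound for about 90 hours before reading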
Trypsin = Trypsin (Sus scrofa, UniProt P00761); test: trypsin protease activity blockade – biochemical, quenched peptide fluorescence, cherry-pick, selectivity assay for Rce1 protease inhibitor project, dose response (AID 488789)
CAAX prenyl protease 2 = target: T1, CAAX prenyl protease 2 (Saccharomyces cerevisiae S288c, UniProt Q03530); assay type: biochemical
T1 sequence (Q03530 whole entry): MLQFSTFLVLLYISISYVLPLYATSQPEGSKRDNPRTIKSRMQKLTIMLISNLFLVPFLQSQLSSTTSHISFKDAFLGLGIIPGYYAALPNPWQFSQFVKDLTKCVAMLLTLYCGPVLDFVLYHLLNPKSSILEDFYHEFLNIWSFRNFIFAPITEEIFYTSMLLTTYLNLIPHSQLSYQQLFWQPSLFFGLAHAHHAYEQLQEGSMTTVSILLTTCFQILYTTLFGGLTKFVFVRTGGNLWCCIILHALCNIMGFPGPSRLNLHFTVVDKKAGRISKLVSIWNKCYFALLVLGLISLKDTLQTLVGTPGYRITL

[3] = target: Neurotensin receptor type 1 (Homo sapiens, UniProt P30989); assay type: functional;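 further: Image-based confirmatory dose-response assay measuring agonist activity at NTR1; NTR1-expressing U2OS osteosarcoma cells imaged for beta-arrestin GFP spot formation; agonist potency where compounds increase beta-arrestin recruitment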
CAAX prenyl protease 1 = CAAX prenyl protease 1 (Saccharomyces cerevisiae S288c, UniProt P47154); test: yeast CAAX protease Ste24 inhibition – biochemical, S. cerevisiae, plate reader, cherry-pick, dose response (AID 488815)
[4] = luciferase reporter signal suppression in cells – H4 neuroglioma cells, luminescence, dose response (AID 1990); assay type: functional, cell-based
[5] = Luminescence Cell-Based Dose Response HTS to Identify Inhibitors of 5'UTR Stem-Loop Driven Prion Protein mRNA Translation in H4 Neuroglioblastoma Cells. [Related pubchem assays: 1827 (Project Summary), 1813 (Primary HTS)]; assay type: functional
[6] = alpha-synuclein stem-loop luciferase translation blockers – H4 neuroglioma cells, luminescence, confirmation (AID 1988); assay type: functional, cell-based
Nonstructural protein 1 = Nonstructural protein 1 (Influenza A virus, UniProt Q194T2); assay type: functional, Influenza A virus (A/California/07/2009(H1N1))
[7] = target: Serine/threonine-protein phosphatase PP1-alpha catalytic subunit (Homo sapiens, UniProt P62136); test: inhibition of protein phosphatase 1 activity – biochemical, fluorescence, dose response (AID 2394)
[8] = target: Serine/threonine-protein phosphatase (Homo sapiens, UniProt Q9BPW0); test: inhibition of protein phosphatase 5 activity – biochemical, fluorescence, dose response (AID 2395)
Streptococcus = test: GAS UMAA2166 growth inhibition – luminescence, BacTiterGlo, counter-screen for streptokinase expression inhibitor project, dose response (AID 1915); assay type: functional, organism-based;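 further: potency for reduction of bacterial viability or growth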
[9] = target: T2, DNA repair protein RAD52 homolog (Homo sapiens, UniProt P43351); assay type: functional, biochemical
T2 sequence (P43351 whole entry): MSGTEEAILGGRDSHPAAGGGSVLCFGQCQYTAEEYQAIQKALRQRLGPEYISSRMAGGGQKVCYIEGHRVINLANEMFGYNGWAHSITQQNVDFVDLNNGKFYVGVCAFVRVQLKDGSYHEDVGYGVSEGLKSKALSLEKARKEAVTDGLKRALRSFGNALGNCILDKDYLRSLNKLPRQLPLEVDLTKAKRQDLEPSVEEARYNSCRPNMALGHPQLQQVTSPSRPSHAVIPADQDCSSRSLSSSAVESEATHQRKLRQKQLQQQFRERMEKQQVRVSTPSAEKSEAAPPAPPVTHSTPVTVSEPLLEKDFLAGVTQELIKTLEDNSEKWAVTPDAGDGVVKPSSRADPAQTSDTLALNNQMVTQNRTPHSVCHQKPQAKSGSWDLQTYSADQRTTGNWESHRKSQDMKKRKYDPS

Serine/threonine-protein phosphatase, sequence (Q9BPW0 whole entry): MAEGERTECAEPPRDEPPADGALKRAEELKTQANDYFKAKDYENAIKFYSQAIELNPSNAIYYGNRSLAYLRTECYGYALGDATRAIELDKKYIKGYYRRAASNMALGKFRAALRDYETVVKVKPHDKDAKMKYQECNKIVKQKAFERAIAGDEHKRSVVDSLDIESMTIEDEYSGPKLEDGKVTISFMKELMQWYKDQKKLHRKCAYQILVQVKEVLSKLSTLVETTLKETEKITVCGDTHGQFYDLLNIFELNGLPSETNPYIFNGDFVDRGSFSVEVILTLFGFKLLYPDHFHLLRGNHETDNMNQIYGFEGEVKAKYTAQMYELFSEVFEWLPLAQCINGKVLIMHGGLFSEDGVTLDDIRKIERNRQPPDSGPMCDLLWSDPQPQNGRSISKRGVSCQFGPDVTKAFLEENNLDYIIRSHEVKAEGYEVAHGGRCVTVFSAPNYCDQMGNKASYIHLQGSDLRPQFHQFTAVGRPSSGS
Nonstructural protein 1, sequence (Q194T2 whole entry): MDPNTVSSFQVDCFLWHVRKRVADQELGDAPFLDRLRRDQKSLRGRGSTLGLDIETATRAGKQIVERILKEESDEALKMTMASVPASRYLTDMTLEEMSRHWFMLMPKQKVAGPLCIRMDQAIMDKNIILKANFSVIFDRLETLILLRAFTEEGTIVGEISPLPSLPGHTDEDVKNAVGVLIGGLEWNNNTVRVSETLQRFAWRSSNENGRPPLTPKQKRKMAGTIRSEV
CAAX prenyl protease 1, sequence (P47154 whole entry): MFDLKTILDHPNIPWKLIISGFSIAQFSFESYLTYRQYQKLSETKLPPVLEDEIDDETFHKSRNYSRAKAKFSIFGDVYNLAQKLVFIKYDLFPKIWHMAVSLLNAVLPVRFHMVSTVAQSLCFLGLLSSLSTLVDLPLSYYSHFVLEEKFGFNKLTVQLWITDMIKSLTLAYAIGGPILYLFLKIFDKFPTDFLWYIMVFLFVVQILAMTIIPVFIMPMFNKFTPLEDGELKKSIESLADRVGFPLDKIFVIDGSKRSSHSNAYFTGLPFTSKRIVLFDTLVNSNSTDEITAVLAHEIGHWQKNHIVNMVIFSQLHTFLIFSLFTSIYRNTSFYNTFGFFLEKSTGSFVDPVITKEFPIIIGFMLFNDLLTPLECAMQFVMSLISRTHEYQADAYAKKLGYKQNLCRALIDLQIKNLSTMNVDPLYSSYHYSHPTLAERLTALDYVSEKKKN
Neurotensin receptor type 1, sequence (P30989 whole entry): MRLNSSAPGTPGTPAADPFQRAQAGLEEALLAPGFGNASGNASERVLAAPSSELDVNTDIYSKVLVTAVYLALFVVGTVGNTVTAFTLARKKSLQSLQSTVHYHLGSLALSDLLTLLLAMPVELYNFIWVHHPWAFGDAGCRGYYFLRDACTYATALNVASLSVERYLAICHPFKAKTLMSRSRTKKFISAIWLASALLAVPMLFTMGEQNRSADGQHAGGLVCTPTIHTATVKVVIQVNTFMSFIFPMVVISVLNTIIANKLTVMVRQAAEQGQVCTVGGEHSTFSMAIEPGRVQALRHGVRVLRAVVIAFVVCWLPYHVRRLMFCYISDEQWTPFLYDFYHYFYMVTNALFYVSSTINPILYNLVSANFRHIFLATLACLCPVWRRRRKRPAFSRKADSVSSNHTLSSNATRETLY
Trypsin, sequence (P00761 whole entry): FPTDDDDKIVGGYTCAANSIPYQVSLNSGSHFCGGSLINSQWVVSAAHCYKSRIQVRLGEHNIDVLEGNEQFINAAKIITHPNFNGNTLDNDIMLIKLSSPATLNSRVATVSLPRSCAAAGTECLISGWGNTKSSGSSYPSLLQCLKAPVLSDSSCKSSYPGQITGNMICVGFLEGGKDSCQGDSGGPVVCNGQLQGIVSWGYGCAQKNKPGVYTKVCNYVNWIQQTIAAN
Serine/threonine-protein phosphatase PP1-alpha catalytic subunit, sequence (P62136 whole entry): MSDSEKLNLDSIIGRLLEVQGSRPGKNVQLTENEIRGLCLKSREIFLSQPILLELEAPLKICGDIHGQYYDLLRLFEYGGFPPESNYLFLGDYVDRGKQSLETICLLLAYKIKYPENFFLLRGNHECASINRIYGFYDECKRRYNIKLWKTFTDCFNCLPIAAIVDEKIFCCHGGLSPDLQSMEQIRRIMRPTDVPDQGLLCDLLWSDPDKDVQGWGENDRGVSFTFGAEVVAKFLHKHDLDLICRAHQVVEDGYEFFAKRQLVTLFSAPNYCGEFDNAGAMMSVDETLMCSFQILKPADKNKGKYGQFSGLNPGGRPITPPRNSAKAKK

In the case of `CCCCCCCCCCOC(=O)Cn1c(COc2cccc(OC)c2)[n+](C)c2ccccc21`, the EC50 [1] is reported as 0.765 µM (active), the EC50 [2] is reported as > 60 µM (not active) and the AC50 (Trypsin) is reported as 5.16 µM (active). For the same compound, the AC50 (CAAX prenyl protease 2) was 65.2 µM (active), the EC50 [3] was 14.3 µM (active) and the AC50 (CAAX prenyl protease 1) was 2.11 µM (active).
In the case of `COc1cc(OC)c(NC2=CC(=O)C(=O)c3ccccc32)cc1Cl`, the EC50 [4] is reported as 0.412 µM (active), the EC50 [5] is reported as 3.7 µM (active) and the EC50 [6] is reported as 0.197 µM (active). The IC50 (Nonstructural protein 1) was > 100 µM (active).
With `CCc1ccc(S(=O)(=O)/N=C2\C=C(Nc3cccc(C(=O)O)c3)C(=O)c3ccccc32)cc1` the IC50 [7] was 22.7 µM (not active), the IC50 [8] was 6.85 µM (active) and the EC50 (Streptococcus) was 1.9 µM (active).
In the case of `COc1cc2c(cc1OC)-c1c(OC)c(OC)cc3c1C(C2)N(C)CC3` (centres undefined), the AC50 [9] is reported as 2.14 µM (active).

Reference: ChEMBL document CHEMBL1201862, “PubChem BioAssay data set” (2004)
